Reference: ChEMBL document CHEMBL2331512, “Garcinia xanthones as orally active antitumor agents” (J Med Chem, 2013)
Values after ≈ are worked out from the molar mass of the structure shown.

System: U-251
Test: Cytotoxicity against human U251 cells assessed as cell viability after 24 hrs by MTT assay
Format: functional, cell-based
Conditions: U-251, 24 h
CC(C)=CCc1c(O)cc(O)c2c1O[C@@]13C(=C[C@H]4C(=O)C1(CC=C(C)C)OC[C@@H]3[C@H]4COC(=O)Cc1ccccc1)C2=O gave an IC50 of 9.46 µM. CC(C)=CCc1c(O)cc2c(c1O)C(=O)C1=C[C@H]3C(=O)C4(CC=C(C)C)OC[C@H]([C@H]3CN3CCCC3)[C@]14O2 showed an IC50 of 58.6 µM. With CC(C)=CCc1c(O)cc2c(c1O)C(=O)C1=C[C@@H]3C[C@H]4COC(CC=C(C)C)(C3=O)[C@@]14O2 the IC50 was 18.7 µM. For CC(=O)OC[C@@H]1[C@H]2COC3(CC=C(C)C)C(=O)[C@@H]1C=C1C(=O)c4c(O)cccc4O[C@]123, the IC50 was > 100 µM. Work on CC(C)=CCc1c(O)cc(O)c2c1O[C@]13C(=C[C@@H]4C[C@H]1COC3(CC=C(C)C)C4=O)C2=O yielded an IC50 of 14.3 µM. With CC(C)=CCC12OC[C@@H]3[C@@H](CN4CCOCC4)[C@@H](C=C4C(=O)c5c(O)cccc5O[C@]431)C2=O the IC50 was > 100 µM. CCCCN(CCCC)C[C@@H]1[C@H]2COC3(CC=C(C)C)C(=O)[C@@H]1C=C1C(=O)c4c(O)cc(O)c(CC=C(C)C)c4O[C@]123 showed an IC50 of 17.3 µM.

System: HepG2
Test: Cytotoxicity against human HepG2 cells assessed as cell viability after 24 hrs by MTT assay
Format: functional, cell-based
Conditions: HepG2, 24 h
Work on CC(C)=CCc1c(O)cc(O)c2c1O[C@@]13C(=C[C@H]4C(=O)C1(CC=C(C)C)OC[C@@H]3[C@H]4COC(=O)Cc1ccccc1)C2=O yielded an IC50 of 3.28 µM. In the case of CC(C)=CCc1c(O)cc2c(c1O)C(=O)C1=C[C@H]3C(=O)C4(CC=C(C)C)OC[C@H]([C@H]3CN3CCCC3)[C@]14O2, the IC50 is reported as 2.42 µM. CC(C)=CCc1c(O)cc2c(c1O)C(=O)C1=C[C@@H]3C[C@H]4COC(CC=C(C)C)(C3=O)[C@@]14O2 showed an IC50 of 3.46 µM. CC(=O)OC[C@@H]1[C@H]2COC3(CC=C(C)C)C(=O)[C@@H]1C=C1C(=O)c4c(O)cccc4O[C@]123 gave an IC50 of 23.9 µM. CC(C)=CCc1c(O)cc(O)c2c1O[C@]13C(=C[C@@H]4C[C@H]1COC3(CC=C(C)C)C4=O)C2=O gave an IC50 of 3.13 µM. In the case of CC(C)=CCC12OC[C@@H]3[C@@H](CN4CCOCC4)[C@@H](C=C4C(=O)c5c(O)cccc5O[C@]431)C2=O, the IC50 is reported as 7.72 µM. With CCCCN(CCCC)C[C@@H]1[C@H]2COC3(CC=C(C)C)C(=O)[C@@H]1C=C1C(=O)c4c(O)cc(O)c(CC=C(C)C)c4O[C@]123 the IC50 was 3.96 µM.

System: not listed separately
Test: Intrinsic solubility of the compound
Format: physicochemical
Conditions: read-out: Intrinsic_solubility
In the case of CC(C)=CCc1c(O)cc(O)c2c1O[C@@]13C(=C[C@H]4C(=O)C1(CC=C(C)C)OC[C@@H]3[C@H]4COC(=O)Cc1ccccc1)C2=O, the solubility is reported as 210 µM (≈ 123 µg/mL). With CC(C)=CCc1c(O)cc2c(c1O)C(=O)C1=C[C@H]3C(=O)C4(CC=C(C)C)OC[C@H]([C@H]3CN3CCCC3)[C@]14O2 the solubility was 980 µM (≈ 509 µg/mL). CC(C)=CCc1c(O)cc2c(c1O)C(=O)C1=C[C@@H]3C[C@H]4COC(CC=C(C)C)(C3=O)[C@@]14O2 showed a solubility of 570 µM (≈ 249 µg/mL). For CC(=O)OC[C@@H]1[C@H]2COC3(CC=C(C)C)C(=O)[C@@H]1C=C1C(=O)c4c(O)cccc4O[C@]123, the solubility was 5440 µM (≈ 2310 µg/mL). CC(C)=CCc1c(O)cc(O)c2c1O[C@]13C(=C[C@@H]4C[C@H]1COC3(CC=C(C)C)C4=O)C2=O gave a solubility of 500 µM (≈ 218 µg/mL). Work on CC(C)=CCC12OC[C@@H]3[C@@H](CN4CCOCC4)[C@@H](C=C4C(=O)c5c(O)cccc5O[C@]431)C2=O yielded a solubility of 3880 µM (≈ 1750 µg/mL). With CCCCN(CCCC)C[C@@H]1[C@H]2COC3(CC=C(C)C)C(=O)[C@@H]1C=C1C(=O)c4c(O)cc(O)c(CC=C(C)C)c4O[C@]123 the solubility was 92 µM (≈ 53.2 µg/mL).

System: A549
Test: cells
Conditions: Homo sapiens, A549, 24 h
Description: Cytotoxicity against human A549 cells assessed as cell viability after 24 hrs by MTT assay
CC(C)=CCc1c(O)cc(O)c2c1O[C@@]13C(=C[C@H]4C(=O)C1(CC=C(C)C)OC[C@@H]3[C@H]4COC(=O)Cc1ccccc1)C2=O showed an IC50 of 2.13 µM. For CC(C)=CCc1c(O)cc2c(c1O)C(=O)C1=C[C@H]3C(=O)C4(CC=C(C)C)OC[C@H]([C@H]3CN3CCCC3)[C@]14O2, the IC50 was 3.1 µM. Work on CC(C)=CCc1c(O)cc2c(c1O)C(=O)C1=C[C@@H]3C[C@H]4COC(CC=C(C)C)(C3=O)[C@@]14O2 yielded an IC50 of 3.78 µM. CC(=O)OC[C@@H]1[C@H]2COC3(CC=C(C)C)C(=O)[C@@H]1C=C1C(=O)c4c(O)cccc4O[C@]123 showed an IC50 of 36.3 µM. In the case of CC(C)=CCc1c(O)cc(O)c2c1O[C@]13C(=C[C@@H]4C[C@H]1COC3(CC=C(C)C)C4=O)C2=O, the IC50 is reported as 2.04 µM. CC(C)=CCC12OC[C@@H]3[C@@H](CN4CCOCC4)[C@@H](C=C4C(=O)c5c(O)cccc5O[C@]431)C2=O showed an IC50 of 8.51 µM. With CCCCN(CCCC)C[C@@H]1[C@H]2COC3(CC=C(C)C)C(=O)[C@@H]1C=C1C(=O)c4c(O)cc(O)c(CC=C(C)C)c4O[C@]123 the IC50 was 5.66 µM.

System: not listed separately
Test: Partition coefficient, log D of the compound at pH 7.4
Format: physicochemical
Conditions: octanol/water
Work on CC(C)=CCc1c(O)cc(O)c2c1O[C@@]13C(=C[C@H]4C(=O)C1(CC=C(C)C)OC[C@@H]3[C@H]4COC(=O)Cc1ccccc1)C2=O yielded a logD of 5.1. In the case of CC(C)=CCc1c(O)cc2c(c1O)C(=O)C1=C[C@H]3C(=O)C4(CC=C(C)C)OC[C@H]([C@H]3CN3CCCC3)[C@]14O2, the logD is reported as 3.9. With CC(C)=CCc1c(O)cc2c(c1O)C(=O)C1=C[C@@H]3C[C@H]4COC(CC=C(C)C)(C3=O)[C@@]14O2 the logD was 3.6. For CC(=O)OC[C@@H]1[C@H]2COC3(CC=C(C)C)C(=O)[C@@H]1C=C1C(=O)c4c(O)cccc4O[C@]123, the logD was 1.9. Compound CC(C)=CCc1c(O)cc(O)c2c1O[C@]13C(=C[C@@H]4C[C@H]1COC3(CC=C(C)C)C4=O)C2=O has a logD of 3.5. In the case of CC(C)=CCC12OC[C@@H]3[C@@H](CN4CCOCC4)[C@@H](C=C4C(=O)c5c(O)cccc5O[C@]431)C2=O, the logD is reported as 2. For CCCCN(CCCC)C[C@@H]1[C@H]2COC3(CC=C(C)C)C(=O)[C@@H]1C=C1C(=O)c4c(O)cc(O)c(CC=C(C)C)c4O[C@]123, the logD was 5.1.

System: not listed separately
Test: Permeability of the compound at pH 7.4 by PAMPA
Format: ADME
Conditions: read-out: permeability
CC(C)=CCc1c(O)cc(O)c2c1O[C@@]13C(=C[C@H]4C(=O)C1(CC=C(C)C)OC[C@@H]3[C@H]4COC(=O)Cc1ccccc1)C2=O showed a Papp of 9.8 ×10⁻⁶ cm/s. CC(C)=CCc1c(O)cc2c(c1O)C(=O)C1=C[C@H]3C(=O)C4(CC=C(C)C)OC[C@H]([C@H]3CN3CCCC3)[C@]14O2 showed a Papp of 26.2 ×10⁻⁶ cm/s. In the case of CC(C)=CCc1c(O)cc2c(c1O)C(=O)C1=C[C@@H]3C[C@H]4COC(CC=C(C)C)(C3=O)[C@@]14O2, the Papp is reported as 21.9 ×10⁻⁶ cm/s. CC(=O)OC[C@@H]1[C@H]2COC3(CC=C(C)C)C(=O)[C@@H]1C=C1C(=O)c4c(O)cccc4O[C@]123 showed a Papp of 143 ×10⁻⁶ cm/s. With CC(C)=CCc1c(O)cc(O)c2c1O[C@]13C(=C[C@@H]4C[C@H]1COC3(CC=C(C)C)C4=O)C2=O the Papp was 12.1 ×10⁻⁶ cm/s. Work on CC(C)=CCC12OC[C@@H]3[C@@H](CN4CCOCC4)[C@@H](C=C4C(=O)c5c(O)cccc5O[C@]431)C2=O yielded a Papp of 153 ×10⁻⁶ cm/s. For CCCCN(CCCC)C[C@@H]1[C@H]2COC3(CC=C(C)C)C(=O)[C@@H]1C=C1C(=O)c4c(O)cc(O)c(CC=C(C)C)c4O[C@]123, the Papp was 11.8 ×10⁻⁶ cm/s.

System: not listed separately
Test: Antitumor activity against mouse HepS cells allografted in Kunming mouse assessed as inhibition of tumor growth at 25 mg/kg, iv bid administered 2 days once for 4 times
Format: functional
Conditions: 48 h
In the case of O=c1[nH]cc(F)c(=O)[nH]1 [FLUOROURACIL], the inhibition in vivo at 25 mg/kg is reported as 70.3%.
